Experimental data from patent US9714247B2, “Multiple kinase pathway inhibitors” (Mannkind Corporation, priority 2012, dated 2017).
Where two headings read alike, the source gives them in different places.

Assays:
[1] = system: Ramos; experiment: CellTiter-Glo proliferation/viability assay; assay type: cell-based, human; details: Homo sapiens, Ramos, read-out: Ramos EC50
[2] = target: CaMKI(h) (Homo sapiens (Human), UniProt Q14012); experiment: IC50 profiler radiometric kinase assay (Millipore); assay type: biochemical; details: CAMK
[3] = target: p70S6K(h) (Homo sapiens, UniProt P23443); experiment: IC50 profiler radiometric kinase assay (Millipore); assay type: biochemical; details: AGC
[4] = target: CDK2/cyclinA(h) (Homo sapiens (Human), UniProt P24941); experiment: IC50 profiler radiometric kinase assay (Millipore); assay type: biochemical; details: CMGC
[5] = target: PI3 Kinase (p110β/p85α)(h) (Homo sapiens (Human), UniProt P42338); experiment: IC50 profiler radiometric kinase assay (Millipore); assay type: biochemical; details: Lipid/Atypical
[6] = target: Lyn (Homo sapiens (Human), UniProt P07948); experiment: biochemical
[7] = target: IGF-1R(h) (Homo sapiens (Human), UniProt P08069); experiment: IC50 profiler radiometric kinase assay (Millipore); assay type: biochemical; details: TK
Procedure: (§1) In order to determine the relative enzyme selectivity of these amino naphthyridinones, representative amino naphthyridinones were evaluated for their ability to inhibit various kinases. Kinases were selected for a broad representation of the kinome (see FIG. 2: Kinases Evaluated). Compounds were evaluated using the IC50 profiler assay (Millipore), which measures substrate phosphorylation via γ-^33P-ATP transfer by the kinase of interest.
(§2) The assay directly measures the catalytic incorporation of phosphate onto kinase substrates. The kinase protein is incubated in buffer with substrate and γ-^33P-ATP. The reaction is initiated by the addition of the Mg-ATP mix. At the end of the reaction incubation time, the reaction is stopped by the addition of phosphoric acid solution and 10 μL of the reaction is spotted onto a filtermat, washed, dried and counted in scintillation fluid. […] In particular the amino naphthyridinones inhibited Abl and some but not all tested members of the Tec and Src families of tyrosine kinases, but not tyrosine-like kinases or the non-tyrosine kinases tested (See FIG. 2: Compound 1). […] Other known drugs with activity against BTK and SFKs, such as dasatinib and bosutinib, have activity against a broader array of tyrosine kinases as well as inhibiting non-tyrosine kinases (See FIG. 2: Dasatinib).

[8] = target: Hck(h) (Homo sapiens (Human), UniProt P08631); experiment: IC50 profiler radiometric kinase assay (Millipore); assay type: biochemical; details: TK
Procedure: as §1, §2

[9] = target: Tie2(h) (Homo sapiens (Human), UniProt Q02763); experiment: IC50 profiler radiometric kinase assay (Millipore); assay type: biochemical; details: TK
Procedure: as §1, §2

[10] = target: KDR(h) (Homo sapiens (Human), UniProt P35968); experiment: IC50 profiler radiometric kinase assay (Millipore); assay type: biochemical; details: TK
Procedure: as §1, §2

[11] = target: MAPKAP-K2(h) (Homo sapiens (Human), UniProt P49137); experiment: IC50 profiler radiometric kinase assay (Millipore); assay type: biochemical; details: CAMK
Procedure: as §1, §2

[12] = target: MEK1(h) (Homo sapiens (Human), UniProt Q02750); experiment: IC50 profiler radiometric kinase assay (Millipore); assay type: biochemical; details: STE
Procedure: as §1, §2

[13] = target: c-Kit(h) (Homo sapiens (Human), UniProt P10721); experiment: IC50 profiler radiometric kinase assay (Millipore); assay type: biochemical; details: TK
Procedure: as §1, §2

[14] = target: Flt3(h) (Homo sapiens (Human), UniProt P36888); experiment: IC50 profiler radiometric kinase assay (Millipore); assay type: biochemical; details: TK
Procedure: as §1, §2

[15] = target: BTK(h) (Homo sapiens (Human), UniProt Q06187); experiment: IC50 profiler radiometric kinase assay (Millipore); assay type: biochemical; details: TK
Procedure: as §1, §2

[16] = target: BTK(R28H)(h) (Homo sapiens (Human), UniProt Q06187, R28H); experiment: IC50 profiler radiometric kinase assay (Millipore); assay type: biochemical; details: TK
Procedure: as §1, §2

[17] = target: CK1δ(h) (Homo sapiens (Human), UniProt P48730); experiment: IC50 profiler radiometric kinase assay (Millipore); assay type: biochemical; details: CK1
Procedure: as §1, §2

[18] = target: MKK6(h) (Homo sapiens (Human), UniProt P52564); experiment: IC50 profiler radiometric kinase assay (Millipore); assay type: biochemical; details: STE
Procedure: as §1, §2

[19] = target: Hck(h) activated (Homo sapiens (Human), UniProt P08631); experiment: IC50 profiler radiometric kinase assay (Millipore); assay type: biochemical; details: TK; activated = phosphorylated
Procedure: as §1, §2

[20] = target: PDK1(h) (Homo sapiens (Human), UniProt O15530); experiment: IC50 profiler radiometric kinase assay (Millipore); assay type: biochemical; details: AGC
Procedure: as §1, §2

[21] = target: Lck(h) (Homo sapiens (Human), UniProt P06239); experiment: IC50 profiler radiometric kinase assay (Millipore); assay type: biochemical; details: TK
Procedure: as §1, §2

[22] = target: CDK7/cyclinH/MAT1(h) (Homo sapiens (Human), UniProt P50613); experiment: IC50 profiler radiometric kinase assay (Millipore); assay type: biochemical; details: CMGC
Procedure: as §1, §2

[23] = target: Abl(T315I)(h) (Homo sapiens (Human), UniProt P00519, T315I); experiment: IC50 profiler radiometric kinase assay (Millipore); assay type: biochemical; details: TK
Procedure: as §1, §2

[24] = target: mTOR(h) (Homo sapiens (Human), UniProt P42345); experiment: IC50 profiler radiometric kinase assay (Millipore); assay type: biochemical; details: Lipid/Atypical
Procedure: as §1, §2

[25] = target: JNK1α1(h) (Homo sapiens (Human), UniProt P45983); experiment: IC50 profiler radiometric kinase assay (Millipore); assay type: biochemical; details: CMGC
Procedure: as §1, §2

[26] = target: JNK2α2(h) (Homo sapiens (Human), UniProt P45984); experiment: IC50 profiler radiometric kinase assay (Millipore); assay type: biochemical; details: CMGC
Procedure: as §1, §2

[27] = target: FGFR1(h) (Homo sapiens (Human), UniProt P11362); experiment: IC50 profiler radiometric kinase assay (Millipore); assay type: biochemical; details: TK
Procedure: as §1, §2

[28] = target: Abl(h) (Homo sapiens (Human), UniProt P00519); experiment: IC50 profiler radiometric kinase assay (Millipore); assay type: biochemical; details: TK
Procedure: as §1, §2

[29] = target: CSK(h) (Homo sapiens (Human), UniProt P41240); experiment: IC50 profiler radiometric kinase assay (Millipore); assay type: biochemical; details: TK
Procedure: as §1, §2

[30] = target: Aurora-A(h) (Homo sapiens (Human), UniProt O14965); experiment: IC50 profiler radiometric kinase assay (Millipore); assay type: biochemical; details: MISC
Procedure: as §1, §2

[31] = target: PKCα(h) (Homo sapiens (Human), UniProt P17252); experiment: IC50 profiler radiometric kinase assay (Millipore); assay type: biochemical; details: AGC
Procedure: as §1, §2

[32] = target: PDGFRα(h) (Homo sapiens (Human), UniProt P16234); experiment: IC50 profiler radiometric kinase assay (Millipore); assay type: biochemical; details: TK
Procedure: as §1, §2

[33] = target: SAPK2b(h) (Homo sapiens (Human), UniProt Q15759); experiment: IC50 profiler radiometric kinase assay (Millipore); assay type: biochemical; details: CMGC
Procedure: as §1, §2

[34] = target: cSRC(h) (Homo sapiens (Human), UniProt P12931); experiment: IC50 profiler radiometric kinase assay (Millipore); assay type: biochemical; details: TK
Procedure: as §1, §2

Sequence of IGF-1R(h) (P08069 31-1367): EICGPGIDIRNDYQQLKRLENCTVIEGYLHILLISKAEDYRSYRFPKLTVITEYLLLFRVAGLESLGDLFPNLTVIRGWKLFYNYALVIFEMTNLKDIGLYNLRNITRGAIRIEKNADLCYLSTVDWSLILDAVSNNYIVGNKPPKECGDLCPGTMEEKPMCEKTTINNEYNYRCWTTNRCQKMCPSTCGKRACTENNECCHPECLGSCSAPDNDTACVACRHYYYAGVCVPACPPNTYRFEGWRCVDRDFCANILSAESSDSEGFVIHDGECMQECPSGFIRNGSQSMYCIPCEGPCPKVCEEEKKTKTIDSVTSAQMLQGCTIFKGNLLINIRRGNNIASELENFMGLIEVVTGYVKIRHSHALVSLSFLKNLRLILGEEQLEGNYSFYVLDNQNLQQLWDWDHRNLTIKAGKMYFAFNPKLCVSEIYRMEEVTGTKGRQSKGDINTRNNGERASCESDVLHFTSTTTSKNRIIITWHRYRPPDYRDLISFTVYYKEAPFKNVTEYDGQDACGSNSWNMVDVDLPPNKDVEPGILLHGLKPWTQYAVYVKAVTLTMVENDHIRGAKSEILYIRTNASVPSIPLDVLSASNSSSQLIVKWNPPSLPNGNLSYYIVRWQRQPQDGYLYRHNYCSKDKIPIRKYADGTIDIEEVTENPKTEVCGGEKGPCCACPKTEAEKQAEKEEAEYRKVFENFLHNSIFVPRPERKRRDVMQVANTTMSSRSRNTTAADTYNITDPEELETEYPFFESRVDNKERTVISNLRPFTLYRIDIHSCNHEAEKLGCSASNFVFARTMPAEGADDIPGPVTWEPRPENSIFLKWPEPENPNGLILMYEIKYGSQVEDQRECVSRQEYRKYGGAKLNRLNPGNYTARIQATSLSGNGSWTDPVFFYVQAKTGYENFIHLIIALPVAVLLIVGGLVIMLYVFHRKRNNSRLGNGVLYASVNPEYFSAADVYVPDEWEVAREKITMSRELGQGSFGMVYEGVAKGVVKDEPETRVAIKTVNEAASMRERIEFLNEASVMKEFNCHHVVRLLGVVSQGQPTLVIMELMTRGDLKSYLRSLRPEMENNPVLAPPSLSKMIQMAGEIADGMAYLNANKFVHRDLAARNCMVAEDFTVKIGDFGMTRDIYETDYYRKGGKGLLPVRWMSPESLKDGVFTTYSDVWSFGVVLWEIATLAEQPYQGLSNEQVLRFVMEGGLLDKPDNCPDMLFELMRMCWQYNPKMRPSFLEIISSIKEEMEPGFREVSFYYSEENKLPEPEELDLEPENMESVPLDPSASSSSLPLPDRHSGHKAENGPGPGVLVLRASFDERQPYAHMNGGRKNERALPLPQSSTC
Sequence of BTK(R28H)(h) (Q06187 whole entry R28H): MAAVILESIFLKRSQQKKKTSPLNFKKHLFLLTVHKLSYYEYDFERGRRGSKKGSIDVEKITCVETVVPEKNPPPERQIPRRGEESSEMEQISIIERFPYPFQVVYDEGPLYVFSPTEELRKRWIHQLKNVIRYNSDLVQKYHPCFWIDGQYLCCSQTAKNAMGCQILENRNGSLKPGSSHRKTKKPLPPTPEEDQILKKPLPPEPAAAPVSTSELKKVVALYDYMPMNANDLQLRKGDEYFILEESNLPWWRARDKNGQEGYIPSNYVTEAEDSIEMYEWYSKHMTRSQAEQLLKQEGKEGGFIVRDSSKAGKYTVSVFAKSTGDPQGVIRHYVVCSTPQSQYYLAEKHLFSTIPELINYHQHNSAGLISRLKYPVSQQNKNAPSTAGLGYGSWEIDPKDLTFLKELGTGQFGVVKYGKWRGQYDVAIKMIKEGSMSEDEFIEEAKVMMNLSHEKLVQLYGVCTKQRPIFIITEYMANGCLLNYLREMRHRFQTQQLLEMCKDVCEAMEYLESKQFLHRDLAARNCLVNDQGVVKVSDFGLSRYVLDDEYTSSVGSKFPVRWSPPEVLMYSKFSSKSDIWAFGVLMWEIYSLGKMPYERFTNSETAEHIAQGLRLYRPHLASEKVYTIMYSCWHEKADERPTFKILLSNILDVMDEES
Sequence of MEK1(h) (Q02750 whole entry): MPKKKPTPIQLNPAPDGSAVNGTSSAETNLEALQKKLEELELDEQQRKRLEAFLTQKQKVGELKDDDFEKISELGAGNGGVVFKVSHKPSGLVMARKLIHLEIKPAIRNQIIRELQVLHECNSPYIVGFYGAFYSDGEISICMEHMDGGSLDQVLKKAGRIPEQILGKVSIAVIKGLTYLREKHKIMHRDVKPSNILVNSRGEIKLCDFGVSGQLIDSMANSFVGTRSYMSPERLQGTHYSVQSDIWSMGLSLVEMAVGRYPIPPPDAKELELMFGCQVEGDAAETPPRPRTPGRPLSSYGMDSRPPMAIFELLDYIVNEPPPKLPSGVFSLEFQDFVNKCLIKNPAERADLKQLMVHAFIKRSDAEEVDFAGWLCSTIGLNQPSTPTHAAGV
Sequence of CK1δ(h) (P48730 whole entry): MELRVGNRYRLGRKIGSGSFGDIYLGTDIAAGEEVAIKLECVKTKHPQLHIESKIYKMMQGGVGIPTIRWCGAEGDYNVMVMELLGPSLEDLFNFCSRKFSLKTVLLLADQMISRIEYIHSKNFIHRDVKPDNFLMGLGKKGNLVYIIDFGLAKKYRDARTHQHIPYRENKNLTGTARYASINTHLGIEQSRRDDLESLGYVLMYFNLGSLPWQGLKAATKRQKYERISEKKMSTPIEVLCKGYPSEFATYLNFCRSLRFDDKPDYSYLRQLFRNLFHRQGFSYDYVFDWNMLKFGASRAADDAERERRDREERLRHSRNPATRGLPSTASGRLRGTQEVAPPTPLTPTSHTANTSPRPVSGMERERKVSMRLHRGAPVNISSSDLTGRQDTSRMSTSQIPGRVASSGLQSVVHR
Sequence of CDK7/cyclinH/MAT1(h) (P50613 whole entry): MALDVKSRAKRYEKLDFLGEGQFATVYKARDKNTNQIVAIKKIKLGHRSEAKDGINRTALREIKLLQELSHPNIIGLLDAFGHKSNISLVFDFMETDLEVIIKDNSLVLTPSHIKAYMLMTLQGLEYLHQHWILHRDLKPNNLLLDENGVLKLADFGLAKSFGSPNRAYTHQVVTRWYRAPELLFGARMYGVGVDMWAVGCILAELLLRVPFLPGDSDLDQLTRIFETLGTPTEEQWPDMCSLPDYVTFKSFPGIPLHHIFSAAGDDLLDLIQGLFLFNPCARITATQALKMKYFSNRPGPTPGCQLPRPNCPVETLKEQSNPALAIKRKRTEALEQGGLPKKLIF
Sequence of CDK7/cyclinH/MAT1(h) (P51946 whole entry partner): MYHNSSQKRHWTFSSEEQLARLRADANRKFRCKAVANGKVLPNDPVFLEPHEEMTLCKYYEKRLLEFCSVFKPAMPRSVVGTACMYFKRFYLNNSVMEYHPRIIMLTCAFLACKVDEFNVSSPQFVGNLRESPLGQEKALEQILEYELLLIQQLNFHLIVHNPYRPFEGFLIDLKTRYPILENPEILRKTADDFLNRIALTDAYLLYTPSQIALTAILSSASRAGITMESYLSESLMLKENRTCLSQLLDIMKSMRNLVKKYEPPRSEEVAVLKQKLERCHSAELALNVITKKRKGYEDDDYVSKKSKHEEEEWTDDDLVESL
Sequence of CDK7/cyclinH/MAT1(h) (P51948 whole entry partner): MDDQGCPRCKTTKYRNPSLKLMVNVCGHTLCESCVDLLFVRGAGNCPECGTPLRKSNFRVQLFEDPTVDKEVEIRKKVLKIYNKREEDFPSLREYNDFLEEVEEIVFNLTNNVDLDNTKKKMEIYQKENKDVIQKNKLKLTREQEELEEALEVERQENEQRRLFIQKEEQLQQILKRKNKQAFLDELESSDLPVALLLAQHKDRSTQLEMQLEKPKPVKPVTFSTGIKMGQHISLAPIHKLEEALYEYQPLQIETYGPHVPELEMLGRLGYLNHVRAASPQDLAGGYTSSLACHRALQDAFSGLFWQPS
Sequence of Lck(h) (P06239 whole entry): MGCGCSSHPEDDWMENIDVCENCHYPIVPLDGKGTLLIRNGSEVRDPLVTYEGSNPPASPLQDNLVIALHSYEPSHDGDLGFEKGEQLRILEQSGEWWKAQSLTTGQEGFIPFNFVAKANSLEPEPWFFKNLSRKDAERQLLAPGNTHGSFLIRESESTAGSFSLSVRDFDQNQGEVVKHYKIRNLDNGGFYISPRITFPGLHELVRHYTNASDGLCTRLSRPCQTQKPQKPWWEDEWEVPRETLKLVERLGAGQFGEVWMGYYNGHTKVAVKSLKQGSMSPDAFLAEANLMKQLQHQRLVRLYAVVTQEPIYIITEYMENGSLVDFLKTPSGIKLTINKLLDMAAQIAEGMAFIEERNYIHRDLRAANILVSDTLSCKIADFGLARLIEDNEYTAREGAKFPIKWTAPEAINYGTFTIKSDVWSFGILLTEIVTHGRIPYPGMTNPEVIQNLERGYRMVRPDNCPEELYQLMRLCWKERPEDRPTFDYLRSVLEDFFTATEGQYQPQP
Sequence of Hck(h) (P08631 whole entry): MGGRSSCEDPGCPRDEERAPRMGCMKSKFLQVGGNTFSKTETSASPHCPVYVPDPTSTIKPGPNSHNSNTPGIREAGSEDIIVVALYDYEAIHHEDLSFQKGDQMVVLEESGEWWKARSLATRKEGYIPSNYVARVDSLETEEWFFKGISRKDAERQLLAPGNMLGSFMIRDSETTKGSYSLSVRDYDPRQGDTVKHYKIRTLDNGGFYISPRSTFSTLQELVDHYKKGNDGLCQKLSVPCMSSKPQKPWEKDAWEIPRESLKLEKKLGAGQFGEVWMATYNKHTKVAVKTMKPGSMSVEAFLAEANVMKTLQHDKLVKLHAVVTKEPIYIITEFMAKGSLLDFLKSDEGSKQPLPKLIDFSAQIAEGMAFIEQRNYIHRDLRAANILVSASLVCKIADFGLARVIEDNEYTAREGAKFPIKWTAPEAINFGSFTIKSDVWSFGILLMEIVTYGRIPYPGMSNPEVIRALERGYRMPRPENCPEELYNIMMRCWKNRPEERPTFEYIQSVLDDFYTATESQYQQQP
Sequence of BTK(h) (Q06187 whole entry): as the sequence (Q06187 whole entry R28H) above, with H28R counted along it

SMILES | IC50 [2] | IC50 [3] | IC50 [4] | IC50 [5] | IC50 [7] | IC50 [8] | IC50 [9] | IC50 [10] | IC50 [11] | IC50 [12] | IC50 [13] | IC50 [14] | IC50 [15] | IC50 [16] | IC50 [17] | IC50 [18] | IC50 [19] | IC50 [20] | IC50 [21] | IC50 [22] | further results
CCN(CC)CCOc1ccc(Nc2cc3c(cn2)cc(-c2ccccc2)c(=O)n3CC)nc1 [Compound 1, 7-[5-(2-Diethylamino-ethoxy)-pyridin-2-ylamino]-1-ethyl-3-phenyl-1H-[1, 6]naphthyridin-2-one] | > 1000 nM | > 1000 nM | > 1000 nM | > 1000 nM | > 1000 nM | 10 to 100 nM | 500 to 1000 nM | 100 to 500 nM | > 1000 nM | > 1000 nM | 100 to 500 nM | > 1000 nM | 10 to 100 nM | 500 to 1000 nM | > 1000 nM | > 1000 nM | < 10 nM | > 1000 nM | < 10 nM | > 1000 nM | EC50 ([1]; 48 hrs): 1000 to 10000 nM; IC50 [6]: 100 to 1000 nM; IC50 [23]: 100 to 500 nM; IC50 [24]: > 1000 nM; IC50 [25]: > 1000 nM; IC50 [26]: > 1000 nM; IC50 [27]: < 10 nM; IC50 [28]: < 10 nM; IC50 [29]: 500 to 1000 nM; IC50 [30]: > 1000 nM; IC50 [31]: > 1000 nM; IC50 [32]: 100 to 500 nM; IC50 [33]: > 1000 nM; IC50 [34]: < 10 nM
CCn1c(=O)c(-c2ccccc2)cc2cnc(Nc3ncc(CCN(C)C)s3)cc21 [Compound 2, 7-[5-(2-Dimethylamino-ethyl)-thiazol-2-ylamino]-1-ethyl-3-phenyl-1H-[1,6]naphthyridin-2-one] | > 1000 nM | > 1000 nM | > 1000 nM | > 1000 nM | > 1000 nM | 500 to 1000 nM | > 1000 nM | 500 to 1000 nM | > 1000 nM | > 1000 nM | 100 to 500 nM | > 1000 nM | 100 to 500 nM | > 1000 nM | > 1000 nM | > 1000 nM | 100 to 500 nM | > 1000 nM | < 10 nM | > 1000 nM | EC50 ([1]; 48 h): 1000 to 10000 nM; IC50 ([6]; Lyn IC50): 1000 to 5000 nM; IC50 [23]: 500 to 1000 nM; IC50 [24]: > 1000 nM; IC50 [25]: > 1000 nM; IC50 [26]: > 1000 nM; IC50 [27]: 10 to 100 nM; IC50 [28]: 10 to 100 nM; IC50 [29]: > 1000 nM; IC50 [30]: > 1000 nM; IC50 [31]: > 1000 nM; IC50 [32]: 500 to 1000 nM; IC50 [33]: > 1000 nM; IC50 [34]: 100 to 500 nM
